Experiments:
[1] = test system: calcium flux (release of Ca2+) in SK-N-SH nerve cells; assay: Inhibition of calcium flux (IC50Ca2+) on nerve cells SK-N-SH; format: cell-based; conditions: Homo sapiens, 50% inhibitory concentration for the release of Ca2+
Source text: (§1) In order for a substance to be recognized as a calcium-channel inhibitor, it must be able to reduce the intracellular calcium concentration or reduce the binding of calcium to intracellular proteins such as, for example, calmodulin, as is described especially by Galizzi, J. P. et al., J. Biol. Chem. 1987, 262 p. 6947; by Y. Okamiya et al., Eur. J. Pharmacol. 1991, 205, p. 49; by J. A. Wagner et al., J. Neurosci. 1988, 8, p. 3354; by H. R. Lee et al., Life Sci. 1984, 35, p. 721; by Schoemaker H. and Lauger S. Eur. J. Pharmacol. 1985, 111, p. 273 or I. J. Reynolds et al., J. Pharmacol. Exp. Ther. 1986, 237, p. 731.
(§2) According to the protocol indicated in these documents, the Assignee determined the IC50Ca2+ of inhibition of calcium flux for compounds (Ia), (IIa) to (IId), (IIIa) and (IIIb), in comparison with verapamil. IC50Ca2+ represents the 50% inhibitory concentration for the release of Ca^2+.

[2] = test system: calcium flux (release of Ca2+) in HDFa cells obtained from skin fibroblasts; assay: Inhibition of calcium flux (IC50Ca2+) on cells obtained from skin fibroblasts HDFa; format: cell-based; conditions: 50% inhibitory concentration for the release of Ca2+
Source text: as §1, §2

fibroblasts = assay: Cytotoxicity check in the dermal equivalent test; format: cell-based, human
[3] = test system: normal human fibroblasts inserted into a fibrillar collagen gel (dermal equivalent); assay: Contraction of dermal equivalents (fibroblasts in fibrillar collagen gel), dermo-decontracting effect; format: cell-based
Source text: This model thus makes it possible to evaluate the relaxing potential of compounds by measuring the delay in contraction of the treated dermal equivalents relative to the control dermal equivalents prepared under the same conditions. Verapamil is used as reference molecule.
Dermal fibroblasts are isolated from human skin explants and cultured in MEM medium+additives (10% foetal calf serum, 1% glutamine, 1% non-essential amino acids, 1% sodium pyruvate, 1% Fungizone and 1% penicillin/streptomycin). The collagen used is obtained from a commercial solution. It is extracted from rat tails and stored in acidic medium at +4° C. It is dialysed beforehand against successive baths of acetic acid of decreasing concentration.
The mixture is homogenized cautiously, so as to obtain a distribution of the cells in the collagen matrix that is as uniform as possible. It is then distributed in each well of a 12-well culture dish at a rate of 2 ml/well. The final cell concentration is 3×10^4 cells/dermal equivalent with a final collagen concentration of 1 mg/ml.
The culture dishes are incubated at 37° C./5% CO2 so as to obtain polymerization and gelation of the collagen. The dermal equivalents thus treated adhere to the dishes and the cells are subjected to mechanical stresses that potentiate their contractile properties. The cells thus cultured in 3D end up under conditions close to those of the dermis. After culturing for three days under these “attached” conditions, the dermal equivalents are detached from their support by gentle agitation. […]
To do this, a digital image is acquired for each treated or untreated dermal equivalent using a camera (CCD camera—Iris Sony DXC -107P) and on each of them, the small (D1) and large (D2) diameters of the dermal equivalent are measured by computer. The surface area is calculated according to the formula for calculating an ellipse: S=(D1×D2×π)/4. […] The percentage of contraction is calculated according to the formula below, in which Si represents the surface area of the dermal equivalent at Ti: […]

IC50 [1] [µM] | SMILES | IC50 [2] [µM] | other results
41 | COc1cc(CNCCC(=O)c2ccccc2)ccc1O [Compound (IIIa)] | 30 | 
14 | COc1ccc(CCN(C)CCC(=O)c2ccccc2)cc1OC [Compound (IIIb)] | 6 | 
29 | CCCCCC(=O)CCN(CC)CCC(=O)c1ccccc1 [Compound (IIa)] | 41 | 
26 | CCCCCCCN(C)CCC(=O)c1ccccc1 [Compound (IIb)] | 31 | 
36 | CCCCCCCNCCC(=O)c1ccccc1 [Compound (IIc)] | 46 | 
3 | CCCCCC(O)(CCCCC)CCN(CC)CCC(=O)c1ccccc1 [Compound (IId), 3-[ethyl(3-hydroxy-3-pentyloctyl)amino]-1-phenylpropan-1-one] | 4 | 
36 | CN(CCC(=O)c1ccccc1)CCC(=O)c1ccccc1.Cl [Compound (Ia)] |  | cytotoxicity as cause of the decontracting effect (fibroblasts): did not result from any cytotoxicity; difference in the degree of contraction compared with control dermal equivalents ([3]; tested at 1 μm, after 4 days of contact with the fibroblasts): 25%
30 | CCN(CCCc1ccccc1)CCCc1ccccc1 [alverine, reference compound] |  | activity in the dermal equivalent contraction test ([3]; tested under the same conditions): no activity
 | COc1ccc(CCN(C)CCCC(C#N)(c2ccc(OC)c(OC)c2)C(C)C)cc1OC (stereo not drawn) [verapamil] |  | difference in the degree of contraction compared with control dermal equivalents ([3]; tested at 10 μM, same conditions (4 days of contact)): 32%

Source: patent publication US20040105875A1, “Composition containing a secondary or tertiary carbonyl amine, method of use thereof, compounds” (L'OREAL, priority 2002, published 2004)
